# Measured values published in a melting point compilation (Tetko et al.).
row,melting point,SMILES
1,239 to 241 °C,Cc1nc2ccccc2c(=O)n1CC(=O)O
2,103 to 105 °C,CN(Cc1cc(C#N)ccc1F)C(=O)CCl
3,73 to 77 °C,Nc1cc2c(cc1[N+](=O)[O-])OCCCO2
4,268 to 270 °C,O=C(O)c1cc2[nH]nnc2cc1F
5,109 to 111 °C,Cc1ccc(C(=O)Nc2cccc(C(F)(F)F)c2)cc1N
6,113 to 115 °C,CNC(=O)C1CN(Cc2ccccc2)CCO1 (stereo not drawn)
7,141 to 143 °C,O=C(O)CS(=O)Cc1ccc(Br)cc1 (stereo not drawn)
8,175 to 177 °C,Cc1ccc(-c2nc(N)sc2CN(C)C)cc1
9,98 to 100 °C,CCOC(=O)c1c(C)oc(N)c1C#N
10,218 to 220 °C,Nc1nc2cc3c(cc2s1)OCCCO3
11,94 to 96 °C,CCN1CCN(S(=O)(=O)c2cccc(N)c2)CC1
12,231 to 233 °C,O=C(O)CCn1c(=O)[nH]c(=O)c2ccccc21
13,211 to 213 °C,CC(C)(C)C(=O)Nc1cccc(C(=O)O)c1
14,118 to 120 °C,CC(C)N(C)S(=O)(=O)c1ccc(NC(=O)CCl)cc1
15,59 to 61 °C,O=C(O)CCSc1ccccc1
16,174 to 176 °C,Nc1cccc(-c2csc(N)n2)c1
17,99 to 101 °C,NC(=O)C1CNc2ccccc2N1 (stereo not drawn)
18,108 to 110 °C,Cc1nn2cc(CCCO)cnc2c1C
19,92 to 94 °C,CCNC(=O)c1ccc(CN)cc1
20,36 to 38 °C,COC(=O)c1noc(C)c1C(C)=O
21,129 to 131 °C,CC(C)c1ncc(Cl)c(C(=O)O)n1
22,137 to 139 °C,O=C1CSC(=S)N1c1ccc(F)cc1
23,134 to 136 °C,O=C(O)c1nn(-c2ccccc2)cc1OC(F)F

row,melting point,SMILES
1,200 to 202 °C,O=C1NCCc2c1ccc(Cl)c2Cl
2,247 to 249 °C,COc1ccc(C)cc1-c1nnc(S)n1N
3,147 to 149 °C,NC(CC(=O)N1CCOCC1)=NO
4,110 to 112 °C,CN(C)C(=O)COc1ccc(C#N)cc1
5,213 to 215 °C,CN(C1CCCCC1)S(=O)(=O)c1ccc(C(=O)O)cc1
6,207 to 209 °C,Cc1cc(C)c2nc(C3CC3)cc(C(=O)O)c2c1
7,189 to 191 °C,NC(=O)NC1(C(=O)O)CC1
8,80 to 82 °C,CC(=O)CCCOc1ccccc1C(N)=O
9,162 to 164 °C,Nc1ccc(S(=O)(=O)Nc2ccc(F)cc2F)cc1
10,63 to 65 °C,CN(C)CC(O)C(F)(F)F (stereo not drawn)
11,89 to 91 °C,CC1COCCN1c1ccc(N)cc1 (stereo not drawn)
12,56 to 58 °C,COCCOc1cc2c(cc1CO)OCO2
13,149 to 151 °C,COc1ccccc1NC(=O)c1ccc(NC(=O)C(C)Cl)cc1 (stereo not drawn)
14,51 to 53 °C,NCc1ccc(OCc2ccccc2)cc1
15,124 to 126 °C,CC1=NN(CC(C)C)C(=O)C1
16,46 to 48 °C,Fc1ccc2c(c1)NCCC2
17,189 to 191 °C,CCOC(=O)c1c(N)sc2c1CCCS2=O (stereo not drawn)
18,249 to 251 °C,Cc1onc(-c2ccncc2)c1C(=O)O
19,177 to 179 °C,NS(=O)(=O)c1nc2ccccc2s1
20,135 to 137 °C,Nc1cc(Cl)c([N+](=O)[O-])cc1OCc1ccccc1
21,160 to 162 °C,Nc1ccccc1NCCCn1ccnc1
22,159 to 161 °C,CS(=O)(=O)Cc1ccc(N)cc1
23,138 to 140 °C,CC(O)C(NC(=O)C1CC1C)C(=O)O (stereo not drawn)

row,melting point,SMILES
1,56 to 58 °C,C#CCNS(C)(=O)=O
2,187 to 189 °C,ON=Cc1ccc(OCc2cccnc2)cc1
3,173 to 175 °C,CSc1nn(C)c(N)c1C(N)=O
4,192 to 194 °C,CN(C)CCn1c(S)nc2ccsc2c1=O
5,195 to 197 °C,O=C(O)c1ccc(CNC(=O)C23CC4CC(CC(C4)C2)C3)cc1
6,71 to 73 °C,O=C(O)C1(Cc2ccc(Cl)cc2)CCCC1
7,98 to 100 °C,CC(Cl)C(=O)Nc1ccc2c(c1)OC1(CCCCC1)O2 (stereo not drawn)
8,44 to 46 °C,COC(C)(C(=O)O)c1ccccc1 (stereo not drawn)
9,45 to 47 °C,CC(=O)N(C)Cc1ccc(C(=O)CCl)cc1
10,169 to 171 °C,Cc1ccc(NC(=O)CCl)c(Br)c1
11,154 to 156 °C,O=C1CCc2cc(F)c([N+](=O)[O-])cc2N1
12,140 to 142 °C,O=C(O)CCCC(=O)c1ccc(Cl)c(Cl)c1
13,169 to 171 °C,CC1(c2ccccc2)NC(=O)N(N)C1=O (stereo not drawn)
14,246 to 248 °C,O=C(O)CCc1nc(-c2nnc[nH]2)no1
15,52 to 54 °C,O=C(O)C1CC1C1CCCCC1 (stereo not drawn)
16,229 to 231 °C,CC(NC(=O)c1ccc2[nH]ncc2c1)C(=O)O (stereo not drawn)
17,85 to 87 °C,CCOc1ccc(S(=O)(=O)NC(=O)c2ccccc2)cc1
18,92 to 94 °C,N#Cc1ccc(F)c(CN2CCCC2=O)c1
19,125 to 127 °C,COc1cccc(CC(C(=O)O)n2nnnc2C)c1 (stereo not drawn)
20,63 to 65 °C,CCC(Oc1ccccc1F)C(=O)O (stereo not drawn)
21,64 to 66 °C,NNC(=O)Cc1cccs1
22,173 to 175 °C,O=C(O)c1cccc(S(=O)(=O)N2CCCCCC2)c1
23,88 to 90 °C,Cc1cc(C)n(-c2cncc(Cl)n2)n1

row,melting point,SMILES
1,161 to 163 °C,NS(=O)(=O)c1ccccc1I
2,< 17 °C,CC(Cl)c1nnc(-c2ccccc2)o1 (stereo not drawn)
3,34 to 36 °C,CC(C)(C)c1nn(-c2ccccc2)c(Cl)c1C=O
4,158 to 160 °C,Cc1ccc(Nc2nc(N)nc(CCl)n2)cc1
5,168 to 170 °C,NC(=O)c1cccc2cccnc12
6,164 to 166 °C,Cn1c(C(C)(C)C)nc2cc(N)ccc21
7,74 to 76 °C,CC(C)(CN)S(=O)(=O)c1ccc(Br)cc1
8,366 to 368 °C,Cn1c(=O)[nH]c2ccc(C(=O)O)cc21
9,154 to 156 °C,O=C(O)c1nnn(-c2cccc(Br)c2)c1C(F)(F)F
10,182 to 184 °C,CCOc1cc(C(=O)O)cc(Br)c1OC
11,175 to 177 °C,CCOc1ccc(N(C)S(=O)(=O)c2ccc(C)c(C(=O)O)c2)cc1
12,186 to 188 °C,Clc1nc(-c2ccccn2)nc2sc(-c3ccccc3)cc12
13,81 to 83 °C,N#Cc1ccc(S)c(Cl)c1
14,65 to 67 °C,N#CCc1cnn(-c2ccccc2)n1
15,202 to 204 °C,CN(C)Cc1nnc(S)o1
16,106 to 108 °C,CC(C)(C)CC(=O)NCC(=O)O
17,203 to 205 °C,CCn1nc(C(=O)O)ccc1=O
18,142 to 144 °C,Nc1cc(Cl)ccc1S(N)(=O)=O
19,195 to 208 °C,O=C(O)c1cccc(N2CCCC2=O)c1
20,68 to 70 °C,CC(C)(Oc1ccc(F)cc1)C(=O)O
21,208 to 210 °C,COc1cccc(Nc2nnc(S)s2)c1
22,97 to 99 °C,Nc1cccc(-c2ccc(Cl)c(Cl)c2)c1
23,74 to 76 °C,Cc1ccc(NC(=O)CCl)cc1S(=O)(=O)N(C)C

row,melting point,SMILES
1,188 to 190 °C,Nc1ccc(-n2cncn2)nc1
2,133 to 135 °C,Cn1cnnc1-c1ccccc1N
3,139 to 141 °C,Cc1ccccc1-c1cc(N)n(Cc2ccccc2)n1
4,126 to 128 °C,Clc1ccccc1Nc1nc2ccccc2s1
5,120 to 122 °C,O=C(O)c1noc(-c2cccc(F)c2)n1
6,101 to 103 °C,CCC(CC)C(=O)N1CCC(=NO)CC1
7,29 to 31 °C,O=C(CC(F)(F)F)c1ccc(F)cc1
8,186 to 188 °C,O=C(O)c1cn(CCOc2ccccc2Cl)c2ccccc12
9,132 to 134 °C,Cc1cc(F)ccc1NC(=O)C=NO
10,99 to 101 °C,CN(C)C(=O)Sc1ccc2c(c1)CCCC2=O
11,149 to 151 °C,Cc1ccc(S(=O)(=O)N2CCCCC2C)cc1C(=O)O (stereo not drawn)
12,209 to 211 °C,N=C(N)c1ccc(N2CCCC2)cn1
13,283 to 285 °C,CCNc1nc(S)nc2ccccc12
14,233 to 235 °C,CNC(=Nc1ccnn1C(C)C)c1ccco1
15,242 to 244 °C,O=C(O)c1csc(-c2cc3ccccc3o2)n1
16,110 to 112 °C,NC(=O)CCOc1ccc(N)cc1
17,118 to 120 °C,CC(=O)Nc1ccc(N)c(C(F)(F)F)c1
18,236 to 238 °C,COc1cc(NC(=O)C2CC2)c(C(=O)O)cc1OC
19,78 to 80 °C,O=C(c1cnc(Cl)c(Cl)c1)N1CCCCC1
20,200 to 202 °C,CCCCOc1ccc(-c2nnc(N)[nH]2)cc1
21,78 to 80 °C,Cc1cc(OCc2ccc(C(=O)NN)cc2)ccc1Cl
22,307 to 309 °C,N#CC1=C(N)N2Cc3ccccc3CC2C1=O (stereo not drawn)
23,173 to 175 °C,O=C(O)c1ccc2c(c1)CCC2

row,melting point,SMILES
1,72 to 74 °C,N#Cc1cc(C(F)(F)F)ccc1N
2,195 to 197 °C,C=CCn1c(N)c(C(N)=S)sc1=S
3,159 to 161 °C,Cn1ncc([N+](=O)[O-])c1C(=O)O
4,122 to 124 °C,COc1ccc(C(=O)NCCCC(=O)O)cc1
5,89 to 91 °C,Cc1ccc(-c2ncco2)cc1N
6,39 to 41 °C,Cc1ccc(C=O)nc1
7,157 to 159 °C,Cn1cc(Br)c([N+](=O)[O-])n1
8,107 to 109 °C,CCOc1ccc(-c2nc(CO)cs2)cc1
9,188 to 190 °C,O=C(O)CC1Sc2ccccc2NC1=O (stereo not drawn)
10,189 to 191 °C,Nc1ccc(N2CCc3ccccc32)cc1C(=O)O
11,188 to 190 °C,O=C(O)Cc1csc(-c2ccc3c(c2)OCCO3)n1
12,81 to 83 °C,CC(=O)CC(=O)Nc1cccc(F)c1
13,110 to 112 °C,C/C(CC(=O)c1ccccc1)=N\c1ccccc1
14,246 to 250 °C,CNS(=O)(=O)c1ccc(C(=O)O)cc1
15,101 to 103 °C,FC(F)(F)c1nc(Cl)c2cc(Br)ccc2n1
16,117 to 119 °C,Cc1c(O)cccc1OCCN1CCOCC1
17,239 to 241 °C,CC(C)c1nccc(O)n1
18,116 to 118 °C,CCC(=CC(=O)O)c1ccc(C)cc1
19,154 to 156 °C,NC(=O)c1cccc([N+](=O)[O-])c1O
20,127 to 129 °C,Cc1cc(S(=O)(=O)Cl)cc([N+](=O)[O-])c1C
21,209 to 211 °C,O=C(O)C1Cc2nc[nH]c2C(c2ccccc2)N1 (stereo not drawn)

row,SMILES,melting point
1,CCCn1nc(C)c(C(=O)O)c1C,113 to 115 °C
2,CC(C)(C)OC(=O)N1CC2CNCC2C1 (stereo not drawn),29 to 31 °C
3,O=C(O)c1cc2ccccc2n1Cc1ccccc1,197 to 199 °C
4,CC1(C)CC(C)(C)c2cc(O)ccc21,99 to 101 °C
5,c1ccc(C2CNCCS2)cc1 (stereo not drawn),60 to 62 °C
6,COc1cccc(-c2nn(Cc3ccccc3)cc2C(=O)O)c1,174 to 176 °C
7,CC(=O)c1cc2c(cc1O)OCO2,114 to 116 °C
